Source: patent US20250304892A1, “APPARATUS, SYSTEM, AND METHOD FOR FORMING A PERTURBABLE BONE MARROW MODEL WITHIN A THREE-DIMENSIONAL MICROPHYSIOLOGICAL SYSTEM” (The Trustees of the University of Pennsylvania, priority 2022, published 2025)

How the values were obtained:
Type in all cases: cell-based, human
[1] = system: micro-engineered bone marrow (MEBM) model; test: Mobilization of blood cells from the MEBM model on vascular perfusion with IL-8 or AMD3100
Text: When hormones, cytokines, and other soluble signals produced by peripheral tissues reach the bone marrow, they can induce mature blood cells in the hematopoietic niche to transmigrate across the sinusoidal endothelium and enter the bloodstream. This regulated release of blood cells into circulation is termed mobilization, which represents a critical step in immunity and continuous cellular replenishment required for homeostasis of the hematopoietic system. Having validated the transcriptomic signatures of mature hematopoietic cells in the MEBM model and their capacity for physiologically relevant cell-cell signaling, the MEBM model was evaluated to determine whether it could reconstitute the complex process of mobilization in the integrated context of the vascularized hematopoietic niche. The study was specifically focused on investigating the ability of mature neutrophils differentiated from HSCs in the MEBM model to replicate rapid release of their in vivo counterparts from the bone marrow reserve during immune responses to inflammatory insults. To simulate this situation, the vasculature of the micro-engineered niche was perfused with culture media containing physiologically relevant concentrations of interleukin-8 (IL-8) during infection (5,000 μg/ml), a systemic inflammatory cytokine known to stimulate neutrophil release.
In control experiments without IL-8, the vast majority of mature neutrophils identified by their expression of CD66b were retained in the perivascular space. […] Intravascular translocation of these cells occurred rapidly, within one hour of treatment, consistent with the time scale over which neutrophils are mobilized from the native marrow in an inflammatory setting.
To capture the process of mobilization under the dynamic conditions of continuous vascular perfusion, a time-lapse imaging of neutrophils in the micro-engineered niche was performed at physiological flow rates (10 μl/min). In the IL-8-treated replicates, neutrophils were distributed in the perivascular region initially, but upon cytokine stimulation, a large fraction of these cells entered the neighboring blood vessels in less than 20 minutes. The intravasated cells were then quickly cleared from the observation area in the direction of flow. The cellular content of effluent collected from these devices was composed primarily of non-adherent cells characterized by multilobular nuclei and robust expression of CD66b, confirming the release of terminally differentiated mature neutrophils. During the same time period only a few neutrophils were mobilized in the control group.
The MEBM model was also responsive to AMD3100 (Plerixafor), a CXCR4 antagonist clinically used for mobilizing HSCs and other hematopoietic cells from the bone marrow for autologous transplantation.
Statistically analyses described above were performed as follows. Mobilization of neutrophils in response to IL-8 and AMD3100 was assessed by ordinary one-way ANOVA, with Dunnett correction employed for multiple comparisons. Marker expression (CD15 and CD66b) as compared between AMD3100- and IL-8-mobilized groups was tested by unpaired t-test. Cell populations following irradiation were compared using 2-way ANOVA with multiple comparisons testing adjusted by Dunnett correction. Mobilization following infection was compared between infected and non-infected groups by unpaired t-test. Quantities of neutrophils at inflow and outflow position were compared using Welch's t-test to account for unequal variances in the data. Comparisons between multiplexed Luminex cytokine assays were performed using multiple t-tests, corrected by the Holm-Sidak method.

[2] = system: micro-engineered bone marrow (MEBM) model; test: Stimulation of erythropoiesis in the MEBM model with erythropoietin; conditions: Erythropoiesis-Specific Medium (EPO 1 ng/ml)
Protocol: Having confirmed the vascularization and HSC colonization of the micro-engineered niche, the potential to deploy the MEBM model to reconstitute multilineage hematopoiesis was investigated. Considering that hematopoiesis in vivo relies on extrinsic cues to control the fate of HSCs, the hematopoietic investigation was conducted by the addition of soluble factors known to drive lineage differentiation. First, the MEBM model was treated with erythropoietin (EPO) (see “Erythropoiesis-Specific Medium” of Table 1) to stimulate erythropoiesis. […] Following this phenotypic organization, the MEBM model produced a substantial number of round, erythroid cells that were distinguishable by their red color and expression of transferrin receptor (i.e., CD71) and glycophorin A. The micro-engineered niche also supported the differentiation of HSCs into myeloid cells. Stimulation of the MEBM model with myelopoietic media (see Table 1) for 21 days produced a marrow construct densely packed with cells of myeloid lineages, most of which were situated proximate the vasculature. A significant number of the cells were terminally differentiated mature neutrophils as identified by their multisegmented nuclei, intracellular secretory granules, and surface marker expression (CD15+/CD66b+).

mobilized neutrophils = test: Boyden chamber migration assay: chemotaxis of mobilized neutrophils in a gradient of IL-8; conditions: over a period of an hour
Protocol: For further investigation, a Boyden chamber migration assay was conducted to measure chemotaxis of mobilized neutrophils in a gradient of IL-8 as a representative endpoint of their functional capacity. […] It was noted that the transmigrated cells in the lower chamber clumped together to form multicellular aggregates, reminiscent of neutrophil swarming in vivo that plays an important functional role in antimicrobial activities of neutrophils.

[3] = image cytometry of CD15 and CD66b staining, cells released by AMD3100

c1cc(CN2CCCNCCNCCCNCC2)ccc1CN1CCCNCCNCCCNCC1 [AMD3100, Plerixafor, reference compound]
rate of mobilization compared with the IL-8-treated model ([1]; AMD3100 25 μg/ml): lower than that in the IL-8-treated model | neutrophils among the released cells of myeloid lineage [1, 3]: 56% | released cells of myeloid lineage [1, 3]: approximately 65% | increase in the rate at which cells were released from the device ([1]; perfused with clinical dose 25 μg/ml, in comparison to untreated controls): more than fivefold

EPO: soluble factor added to stimulate erythropoiesis
effect of EPO addition on the micro-engineered niche [2]: formation of multicellular complexes

IL-8: a systemic inflammatory cytokine known to stimulate neutrophil release
cells that moved across the membrane (mobilized neutrophils): ~80% | mature neutrophils in the population of released cells ([1]; IL-8-induced mobilization, image cytometry): 76% | egress of CD66b+ cells from the stromal compartment into the vascular lumen ([1]; IL-8 infused through the vasculature (5,000 μg/ml), compared with control without IL-8): substantial egress of CD66b+ cells | time until a large fraction of neutrophils entered the neighboring blood vessels ([1]; time-lapse imaging, continuous vascular perfusion at 10 μl/min, upon cytokine stimulation): less than 20 minutes
